Results from patent publication US20230365589A1, “NOVEL AMINE DERIVATIVES” (Sumitomo Pharma Co., Ltd., priority 2020, published 2023).
Where two headings read alike, the source gives them in different places.

Legend:
Format in all cases: biochemical
[1] = target: T1, DYRK2 (Homo sapiens, UniProt Q92630); assay: Inhibition test on activity of DYRK family, mobility shift assay (MSA): DYRK2
T1 construct: purchased Carna Biosciences, Inc. 04-132
T1 sequence (Q92630 74-601 limits assumed): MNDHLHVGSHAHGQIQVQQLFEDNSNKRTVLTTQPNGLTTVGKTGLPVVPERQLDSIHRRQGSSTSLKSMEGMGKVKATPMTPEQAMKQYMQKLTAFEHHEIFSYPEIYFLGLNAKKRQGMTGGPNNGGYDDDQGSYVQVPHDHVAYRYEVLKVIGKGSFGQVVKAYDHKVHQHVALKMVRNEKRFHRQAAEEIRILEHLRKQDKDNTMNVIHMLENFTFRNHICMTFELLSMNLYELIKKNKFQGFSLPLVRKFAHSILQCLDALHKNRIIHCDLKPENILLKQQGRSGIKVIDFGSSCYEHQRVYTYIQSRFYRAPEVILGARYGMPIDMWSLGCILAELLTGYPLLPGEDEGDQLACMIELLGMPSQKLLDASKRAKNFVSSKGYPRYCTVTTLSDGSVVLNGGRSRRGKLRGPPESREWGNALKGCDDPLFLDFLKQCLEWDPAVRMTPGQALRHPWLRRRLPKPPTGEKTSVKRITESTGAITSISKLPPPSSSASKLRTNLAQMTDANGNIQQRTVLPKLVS
Method: (§1) [Inhibition Test on Activity of DYRK Family (DYRK1A, DYRK1B, DYRK2, and DYRK3)]
(§2) The kinase activity was measured by mobility shift assay (MSA) method using QuickScout Screening Assist™ MSA (commercially available kit manufactured by Carna Biosciences, Inc.). The substrate of the kinase reaction used was an FITC-labeled DYRKtide peptide included in the kit. An assay buffer [20 mM HEPES, 0.01% Triton X-100™, 2 mM dithiothreitol, pH 7.5]was used to create a substrate mixture solution with a substrate (4 μM), MgCl2(20 mM), and ATP (DYRK1A: 100 μM; DYRK1B: 200 μM; DYRK2: 40 μM; and DYRK3: 20 μM). In addition, kinases (DYRK1A: manufactured by Carna Biosciences, Inc., Cat. No. 04-130; DYRK1B: manufactured by Carna Biosciences, Inc., Cat. No. 04-131; DYRK2; manufactured by Carna Biosciences, Inc., Cat. No. 04-132; and DYRK3; manufactured by Carna Biosciences, Inc., Cat. No. 04-133) were diluted with the assay buffer to prepare enzyme solutions (DYRK1A: 0.2 ng/μL; DYRK1B: 0.08 ng/μL; DYRK2: 0.04 ng/μL; and DYRK3: 0.25 ng/μL). The 10 mM solution of the test compound in DMSO was further diluted with DMSO to 10 levels of the concentration (0.00003 mM, 0.0001 mM, 0.0003 mM, 0.001 mM, 0.003 mM, 0.01 mM, 0.03 mM, 0.1 mM, 0.3 mM, and 1 mM), each of which was subjected to 25-fold dilution with the assay buffer to obtain a drug solution (4% DMSO solution). 5 μL of the drug solution or a control solution (4% DMSO-assay buffer), 5 μL of the substrate mixture solution, and 10 μL of the enzyme solution were mixed in the wells of a polypropylene 384-well plate and allowed to react at room temperature for 1 hour, and then the reaction was quenched by adding 60 μL of the termination buffer included in the kit. Subsequently, the quantities of the substrates (S) and the phosphorylated substrate (P) in the reaction solution were measured using LabChip EZ Reader II system (manufactured by Caliper Life Sciences) according to the protocol of the assay kit.
(§3) The heights of the peaks of the “substrate” and the “phosphorylated substrate” were expressed as S and P, respectively, and a blank containing the assay buffer instead of the enzyme solution was also measured.
(§4) The inhibition rate (%) of the test compound was calculated according to the following equation:
(§5) Inhibition rate (%)=(1−(C−A)/(B−A))×100 • wherein, A, B, and C represent P/(P+S) of the blank well, P/(P+S) of the control solution well, and P/(P+S) of the compound-containing well, respectively.
(§6) The IC50 value was calculated via a regression analysis of the inhibition rate and the test compound concentration (logarithmic value).
(§7) The inhibiting activities of representative compounds of the present invention are shown against DYRK1A, DYRK1B, DYRK2, and DYRK3 in Tables.

[2] = target: T2, DYRK3 (Homo sapiens, UniProt O43781); assay: Inhibition test on activity of DYRK family, mobility shift assay (MSA): DYRK3
T2 construct: purchased Carna Biosciences, Inc. 04-133
T2 sequence (O43781 1-568 isoform O43781-2): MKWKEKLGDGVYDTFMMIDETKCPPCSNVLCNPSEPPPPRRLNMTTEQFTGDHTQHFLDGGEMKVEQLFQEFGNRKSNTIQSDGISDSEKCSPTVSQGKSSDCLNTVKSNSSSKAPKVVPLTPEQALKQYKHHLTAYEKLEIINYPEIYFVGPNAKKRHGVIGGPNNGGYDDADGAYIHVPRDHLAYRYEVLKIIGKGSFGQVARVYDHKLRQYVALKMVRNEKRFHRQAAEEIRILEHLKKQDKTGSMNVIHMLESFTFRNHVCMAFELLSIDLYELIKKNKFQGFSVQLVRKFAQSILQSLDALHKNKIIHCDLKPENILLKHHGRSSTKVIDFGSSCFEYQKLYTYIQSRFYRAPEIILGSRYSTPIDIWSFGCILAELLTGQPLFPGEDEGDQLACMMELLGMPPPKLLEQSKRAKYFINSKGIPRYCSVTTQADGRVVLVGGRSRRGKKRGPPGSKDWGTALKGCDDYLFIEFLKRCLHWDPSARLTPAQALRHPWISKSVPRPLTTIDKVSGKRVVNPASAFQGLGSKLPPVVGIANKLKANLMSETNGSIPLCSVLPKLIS
Method: as §1, §2, §3, §4, §5, §6, §7

[3] = target: T3, DYRK1A (Homo sapiens, UniProt Q13627); assay: Inhibition test on activity of DYRK family, mobility shift assay (MSA): DYRK1A
T3 construct: purchased Carna Biosciences, Inc. 04-130
Method: as §1, §2, §3, §4, §5, §6

[4] = MSA, FITC-labeled DYRKtide peptide, ATP 40 μM, read-out: Inhibitory activity DYRK 2 (IC50 class)
[5] = MSA, FITC-labeled DYRKtide peptide, ATP 20 μM, read-out: Inhibitory activity DYRK 3 (IC50 class)
[6] = MSA, FITC-labeled DYRKtide peptide, ATP 100 μM, read-out: Inhibitory activity DYRK 1A (IC50 class)
[7] = read-out: Inhibitory activity DYRK 2
[8] = read-out: Inhibitory activity DYRK 3
[9] = read-out: Inhibitory activity DYRK 1A

IC50 [1, 4] | IC50 [2, 5] | IC50 [3, 6] | IC50 [1, 7] | IC50 [2, 8] | IC50 [3, 9] | SMILES
> 1000 nM | > 1000 nM | 100 to 1000 nM | – | – | – | CC(=O)N1CC[C@@H]2NC(=O)N(c3nc4c5c(ccc4s3)OCC5)[C@@H]2C1 (relative stereo) [Example 20, cis-5-Acetyl-3-(7,8-dihydrofuro[3,2-e][1,3]benzothiazol-2-yl) octahydro-2H-imidazo[4,5-c]pyridin-2-one]
≥ 1000 nM | ≥ 1000 nM | < 10 nM | – | – | – | O=C1N[C@@H]2CCN(C3CC3)C[C@@H]2N1c1nc2c3c(ccc2s1)OCCO3 (relative stereo) [Example 31, cis-5-Cyclopropyl-3-(7,8-dihydro[1,4]dioxino[2,3-e][1,3]benzothiazol-2-yl)octahydro-2H-imidazo[4,5-c]pyridin-2-one]
≥ 1000 nM | ≥ 1000 nM | 100 to 1000 nM | – | – | – | O=C1N[C@@H]2CCN(C3CC3)C[C@@H]2N1c1nc2c3c(ccc2s1)OCCO3 (single isomer, unassigned) [Example 33]
≥ 1000 nM | ≥ 1000 nM | ≥ 1000 nM | – | – | – | O=C1N[C@@H]2CCN(C3CC3)C[C@@H]2N1c1nc2c3c(ccc2s1)OCO3 (single isomer, unassigned) [Example 35]
– | – | – | ≥ 1000 nM | ≥ 1000 nM | ≥ 1000 nM | O=C1N[C@@H]2CCN(C3CC3)C[C@@H]2N1c1nc2c3c(ccc2s1)OCC3 (single isomer, unassigned) [Example 109]
– | – | – | ≥ 1000 nM | ≥ 1000 nM | < 10 nM | O=C1N[C@H]2CCN(C3CC3)C[C@H]2N1c1nc2c3c(ccc2s1)OCC3 (single isomer, unassigned) [Example 110]
– | – | – | ≥ 1000 nM | ≥ 1000 nM | 100 to 1000 nM | N#CCN1CC[C@H]2NC(=O)N(c3nc4c5c(ccc4s3)OCC5)[C@H]2C1 (single isomer, unassigned) [Example 111]
– | – | – | ≥ 1000 nM | 100 to 1000 nM | < 10 nM | N#CCN1CC[C@@H]2NC(=O)N(c3nc4c5c(ccc4s3)OCC5)[C@@H]2C1 (single isomer, unassigned) [Example 112]
– | – | – | 100 to 1000 nM | 100 to 1000 nM | < 10 nM | C#CCN1CC[C@@H]2NC(=O)N(c3nc4c5c(ccc4s3)OCC5)[C@@H]2C1 (single isomer, unassigned) [Example 114]
100 to 1000 nM | 10 to 100 nM | 10 to 100 nM | – | – | – | O=C1NC2CNCCC2N1c1nc2c3c(ccc2s1)OCC3 (stereo not drawn) [Example 2]
≥ 1000 nM | 100 to 1000 nM | 100 to 1000 nM | – | – | – | O=C1N[C@H]2CCCNC[C@H]2N1c1nc2c3c(ccc2s1)OCC3 [Example 4]
100 to 1000 nM | 100 to 1000 nM | 10 to 100 nM | – | – | – | O=C1N[C@H]2CNCCC[C@H]2N1c1nc2c3c(ccc2s1)OCC3 [Example 5]
≥ 1000 nM | ≥ 1000 nM | 100 to 1000 nM | – | – | – | COCCN1CCC2C(C1)NC(=O)N2c1nc2c3c(ccc2s1)OCC3 (stereo not drawn) [Example 10]
100 to 1000 nM | 100 to 1000 nM | 10 to 100 nM | – | – | – | CCN1CCC2C(C1)NC(=O)N2c1nc2c3c(ccc2s1)OCC3 (stereo not drawn) [Example 12]
≥ 1000 nM | ≥ 1000 nM | 10 to 100 nM | – | – | – | O=C1NC2CCN(CCO)CC2N1c1nc2c3c(ccc2s1)OCC3 (stereo not drawn) [Example 13]
≥ 1000 nM | ≥ 1000 nM | 100 to 1000 nM | – | – | – | CC(C)N1CC2NC(=O)N(c3nc4c5c(ccc4s3)OCC5)C2C1 (stereo not drawn) [Example 16]
100 to 1000 nM | 100 to 1000 nM | 10 to 100 nM | – | – | – | CN1CCC[C@@H]2[C@H](C1)NC(=O)N2c1nc2c3c(ccc2s1)OCC3 [Example 18]
100 to 1000 nM | 100 to 1000 nM | < 10 nM | – | – | – | O=C1N[C@H]2COCC[C@H]2N1c1nc2c3c(ccc2s1)OCO3 [Example 21, (3aR,7aR)-1-(2H-[1,3]dioxolo[4,5-e][1,3]benzothiazol-7-yl)hexahydropyrano[3,4-d]imidazol-2(3H)-one]
≥ 1000 nM | ≥ 1000 nM | 100 to 1000 nM | – | – | – | C[C@H]1NC(=O)N(c2nc3c4c(ccc3s2)OCC4)[C@@H]1CN(C)C [Example 22, (4R,5R)-1-(7,8-dihydrofuro[3,2-e][1,3]benzothiazol-2-yl)-5-[(dimethylamino)methyl]-4-methylimidazolidin-2-one]
≥ 1000 nM | ≥ 1000 nM | 10 to 100 nM | – | – | – | C[C@@H]1NC(=O)N(c2nc3c4c(ccc3s2)OCC4)[C@@H]1CN(C)C [Example 25]
≥ 1000 nM | ≥ 1000 nM | 10 to 100 nM | – | – | – | O=C1NC2CCNCC2N1c1nc2c3c(ccc2s1)OCCO3 (stereo not drawn) [Example 29]
≥ 1000 nM | ≥ 1000 nM | 10 to 100 nM | – | – | – | O=C1NC2CCNCC2N1c1nc2c3c(ccc2s1)OCO3 (stereo not drawn) [Example 30]
≥ 1000 nM | ≥ 1000 nM | < 10 nM | – | – | – | O=C1NC2CCN(C3CC3)CC2N1c1nc2c3c(ccc2s1)OCO3 (stereo not drawn) [Example 32]
